We go through 22 compounds from US8017612B2, “Piperazine compound and use thereof as a HCV polymerase inhibitor” (priority 2006, dated 2011).

The target of assay [1] is T1, HCV polymerase (NS5B) type 1b (Hepatitis C virus genotype 1b, UniProt P26663).
T1 construct: a region encoding NS5B (J Virol 1991 March, 65(3), 1105-13, 544 amino acids after deletion of 47 amino acids on the C-terminal); 6xHis (C); made in house; host or cells: Escherichia coli
Put plainly: Assay of enzyme (HCV polymerase) inhibitory activity, type 1b enzyme. Type of assay: biochemical, HCV BK strain (type 1b). Conditions: HCV polymerase inhibitory activity (IC50), 1b, type 1b enzyme 0.5 μg/ml, 25° C., 60 min. In short, it runs like this: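 Polymerase activity was followed as radiolabelled UTP incorporation by E. coli-expressed, His-tagged NS5B of HCV type 1b lacking its last 47 residues. Conditions: 2 μM UTP, 50 μM other NTPs, Mg2+ buffer at pH 7.5, 25 °C for 60 min. Inhibition relative to compound-free reactions gave IC50.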

In assay [2] the target is T2, HCV polymerase (NS5B) type 1a (Hepatitis C virus genotype 1a, UniProt P26664).
T2 construct: made in house; host or cells: Escherichia coli (by the 'similar method' of the 1b enzyme)
Put plainly: Assay of enzyme (HCV polymerase) inhibitory activity, type 1a enzyme. Type of assay: biochemical, HCV type 1a (cloned from the blood of patients). The settings on record: HCV polymerase inhibitory activity (IC50), 1a, type 1a enzyme 1.5 μg/ml, 25° C., 60 min. The procedure, abridged: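 IC50 values derive from radioactivity of newly synthesized RNA with versus without test compound. The enzyme was C-terminally truncated type 1a NS5B, 1.5 μg/ml, run 60 min at 25° C with 3H-UTP-labelled nucleotides.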

Counter-ions that a name gives are not always drawn. A value given as a limit tells only on which side of the number the result lay.

On to `CC(C)c1ccc(CNC(=O)[C@H]2CN(c3nc(Br)n[nH]3)CCN2S(=O)(=O)c2ccc(C(F)(F)F)cc2)cc1` [Example 372, (R)-4-(5-bromo-2H-[1,2,4]triazol-3-yl)-1-(4-trifluoromethyl-benzenesulfonyl)-piperazine-2-carboxylic acid 4-isopropyl-benzylamide], for which the values for the half-inhibitory concentration (IC50) in assay [1] and in assay [2] were less than 0.1 µM and 0.1 to 1 µM, respectively.
For `CC(C)c1ccc(CNC(=O)[C@H]2CN(c3ncn[nH]3)CCN2S(=O)(=O)c2ccc(C(F)(F)F)cc2)cc1` [Example 373, (R)-4-(2H-[1,2,4]triazol-3-yl)-1-(4-trifluoromethyl-benzenesulfonyl)-piperazine-2-carboxylic acid 4-isopropyl-benzylamide], in that order: 0.1 to 1 µM and greater than 1 µM.
The like results for `CCCc1ccc(CNC(=O)[C@H]2CN(c3cnc(C(=O)O)cn3)CCN2S(=O)(=O)c2ccc(OC(F)(F)F)cc2)cc1` [Example 374, (R)-3-(4-propyl-benzylcarbamoyl)-4-(4-trifluoromethoxy-benzenesulfonyl)-3,4,5,6-tetrahydro-2H-[1,2′]bipyrazinyl-5′-carboxylic acid] were, in that order, less than 0.1 µM and less than 0.1 µM.
On to `CCCc1ncc(S(=O)(=O)N2CCN(C(C)=O)C[C@@H]2C(=O)NCc2ccc(C(C)C)cc2)s1` [Example 375, (R)-4-acetyl-1-(2-propyl-thiazole-5-sulfonyl)-piperazine-2-carboxylic acid 4-isopropyl-benzylamide], for which the IC50 in assay [1] and in assay [2] was less than 0.1 µM each time.
For `CC(C)c1ccc(CNC(=O)[C@H]2CN(c3ccc(C(=O)O)nn3)CCN2S(=O)(=O)c2ccc(C(F)(F)F)cc2)cc1` [Example 376, 6-[(R)-3-(4-isopropyl-benzylcarbamoyl)-4-(4-trifluoromethyl-benzenesulfonyl)-piperazin-1-yl]-pyridazine-3-carboxylic acid], the half-maximal inhibitory concentration (IC50) in assay [1] and in assay [2] was less than 0.1 µM in each case.
Consider `CC(C)c1ccc(CNC(=O)[C@H]2CN(c3cnc(C(N)=O)cn3)CCN2S(=O)(=O)c2ccc(C(F)(F)F)cc2)cc1` [Example 377, (R)-4-(4-trifluoromethyl-benzenesulfonyl)-3,4,5,6-tetrahydro-2H-[1,2′]bipyrazinyl-3,5′-dicarboxylic acid 5′-amide 3-(4-isopropyl-benzylamide)], for which the IC50 in assay [1] and in assay [2] was less than 0.1 µM throughout.
With `CCCc1ccc(CNC(=O)[C@H]2CN(c3nc(C)c(C(=O)O)s3)CCN2S(=O)(=O)c2ccc(OC(F)(F)F)cc2)cc1` [Example 378, 4-methyl-2-[(R)-3-(4-propyl-benzylcarbamoyl)-4-(4-trifluoromethoxy-benzenesulfonyl)-piperazin-1-yl]-thiazole-5-carboxylic acid], the concentration for half-maximal inhibition (IC50) in assay [1] and in assay [2] was less than 0.1 µM in each case.
With `Cc1nc(N2CCN(S(=O)(=O)c3ccc(OC(F)(F)F)cc3)[C@@H](C(=O)NCc3ccc(N(C)C)cc3)C2)sc1C(=O)O` [Example 379, 2-[(R)-3-(4-dimethylamino-benzylcarbamoyl)-4-(4-trifluoromethoxy-benzenesulfonyl)-piperazin-1-yl]-4-methyl-thiazole-5-carboxylic acid hydrochloride], the IC50 in assay [1] and in assay [2] was less than 0.1 µM throughout.
Consider `CCCc1ccc(S(=O)(=O)N2CCN(c3nc(C)c(C(=O)O)s3)C[C@@H]2C(=O)NCc2ccc(C(C)C)cc2)s1` [Example 380, 2-[(R)-3-(4-isopropyl-benzylcarbamoyl)-4-(5-propyl-thiophene-2-sulfonyl)-piperazin-1-yl]-4-methyl-thiazole-5-carboxylic acid], for which the concentration for half-maximal inhibition (IC50) in assay [1] and in assay [2] was less than 0.1 µM throughout.
Consider `Cc1nc(N2CCN(S(=O)(=O)c3ccc4c(c3)CCCCC4)[C@@H](C(=O)NCc3ccc(C(C)C)cc3)C2)sc1C(=O)O` [Example 381, 2-[(R)-3-(4-isopropyl-benzylcarbamoyl)-4-(6,7,8,9-tetrahydro-5H-benzocycloheptene-2-sulfonyl)-piperazin-1-yl]-4-methyl-thiazole-5-carboxylic acid], for which the IC50 in assay [1] and in assay [2] was less than 0.1 µM each time.
Take `CC(C)c1ccc(CNC(=O)[C@H]2CN(c3nc(CCC(=O)O)cs3)CCN2S(=O)(=O)c2ccc(OC(F)(F)F)cc2)cc1` [Example 382, 3-{2-[(R)-3-(4-isopropyl-benzylcarbamoyl)-4-(4-trifluoromethoxy-benzenesulfonyl)-piperazin-1-yl]-thiazol-4-yl}-propionic acid]: the IC50 in assay [1] and in assay [2] was 0.1 to 1 µM throughout.
For `Cc1nc(N2CCN(S(=O)(=O)c3ccc(OC(F)(F)F)cc3)[C@@H](C(=O)NCc3ccc(C4CC4)cc3)C2)sc1C(=O)O` [Example 383, 2-[(R)-3-(4-cyclopropyl-benzylcarbamoyl)-4-(4-trifluoromethoxy-benzenesulfonyl)-piperazin-1-yl]-4-methyl-thiazole-5-carboxylic acid], the IC50 in assay [1] and in assay [2] was less than 0.1 µM each time.
In the case of `CC(C)c1ccc(CNC(=O)[C@H]2CN(C(=O)CNCC(=O)O)CCN2S(=O)(=O)c2ccc(C(F)(F)F)cc2)cc1` [Example 384, {2-[(R)-3-(4-isopropyl-benzylcarbamoyl)-4-(4-trifluoromethyl-benzenesulfonyl)-piperazin-1-yl]-2-oxo-ethylamino}-acetic acid hydrochloride], the IC50 in assay [1] and in assay [2] was 0.1 to 1 µM throughout.
Take `CC(C)c1ccc(CNC(=O)[C@H]2CN(c3cnc(C(=O)O)cn3)CCN2S(=O)(=O)c2ccc(OC(F)(F)F)cc2)cc1` [Example 385, (R)-3-(4-isopropyl-benzylcarbamoyl)-4-(4-trifluoromethoxy-benzenesulfonyl)-3,4,5,6-tetrahydro-2H-[1,2′]bipyrazinyl-5′-carboxylic acid]: the concentration for half-maximal inhibition (IC50) in assay [1] and in assay [2] was less than 0.1 µM in each case.
With `O=C(O)c1cnc(N2CCN(S(=O)(=O)c3ccc(OC(F)(F)F)cc3)[C@@H](C(=O)NCc3ccc(OC(F)(F)F)cc3)C2)cn1` [Example 386, (R)-4-(4-trifluoromethoxy-benzenesulfonyl)-3-(4-trifluoromethoxy-benzylcarbamoyl)-3,4,5,6-tetrahydro-2H-[1,2′]bipyrazinyl-5′-carboxylic acid], the IC50 in assay [1] and in assay [2] was less than 0.1 µM throughout.
For the compound `Cc1nc(N2CCN(S(=O)(=O)c3ccc(OC(F)(F)F)cc3)[C@@H](C(=O)NCc3ccc(N(C)C)nc3)C2)sc1C(=O)O` [Example 387, 2-[(R)-3-[(6-dimethylamino-pyridin-3-ylmethyl)-carbamoyl]-4-(4-trifluoromethoxy-benzenesulfonyl)-piperazin-1-yl]-4-methyl-thiazole-5-carboxylic acid], the IC50 in assay [1] and in assay [2] was less than 0.1 µM in each case.
As for `CCCc1ccc(CNC(=O)[C@H]2CN(c3nc(C)c(C(=O)O)s3)CCN2S(=O)(=O)c2ccc(OC(F)(F)F)cc2)cn1` [Example 388, 4-methyl-2-[(R)-3-[(6-propyl-pyridin-3-ylmethyl)-carbamoyl]-4-(4-trifluoromethoxy-benzenesulfonyl)-piperazin-1-yl]-thiazole-5-carboxylic acid], the IC50 (usually the concentration needed to halve the response being measured) in assay [1] was less than 0.1 µM; in assay [2], 0.1 to 1 µM.
For `Cc1nc(N2CCN(S(=O)(=O)c3ccc(OC(F)(F)F)cc3)[C@@H](C(=O)NCc3ccc(N4CCC4)nc3)C2)sc1C(=O)O` [Example 389, 2-[(R)-3-[(6-azetidin-1-yl-pyridin-3-ylmethyl)-carbamoyl]-4-(4-trifluoromethoxy-benzenesulfonyl)-piperazin-1-yl]-4-methyl-thiazole-5-carboxylic acid], in that order: less than 0.1 µM and 0.1 to 1 µM.
For `Cc1nc(N2CCN(S(=O)(=O)c3ccc(OC(F)(F)F)cc3)[C@@H](C(=O)NCc3ccc(N4CCCC4)nc3)C2)sc1C(=O)O` [Example 390, 4-methyl-2-[(R)-3-[(6-pyrrolidin-1-yl-pyridin-3-ylmethyl)-carbamoyl]-4-(4-trifluoromethoxy-benzenesulfonyl)-piperazin-1-yl]-thiazole-5-carboxylic acid], in that order: less than 0.1 µM and 0.1 to 1 µM.
Take `CC(C)c1ccc(CNC(=O)[C@H]2CN(C(=O)CNCCC(=O)O)CCN2S(=O)(=O)c2ccc(C(F)(F)F)cc2)cc1` [Example 391, 3-{2-[(R)-3-(4-isopropyl-benzylcarbamoyl)-4-(4-trifluoromethyl-benzenesulfonyl)-piperazin-1-yl]-2-oxo-ethylamino}-propionic acid hydrochloride]: the IC50 in assay [1] and in assay [2] was 0.1 to 1 µM in each case.
Consider `COc1ccc(CCNC(=O)[C@H]2CN(C(C)=O)CCN2S(=O)(=O)c2ccc(C(C)C)cc2)cc1` [Example 392, (R)-4-acetyl-1-(4-isopropyl-benzenesulfonyl)-piperazine-2-carboxylic acid [2-(4-methoxy-phenyl)-ethyl]-amide], for which the IC50 in assay [1] and in assay [2] was greater than 1 µM each time.
Turning to `CC(=O)N1CCN(S(=O)(=O)c2ccc(C(C)C)cc2)[C@@H](C(=O)NCCc2ccc(C(=O)O)cc2)C1` [Example 393, 4-(2-{[(R)-4-acetyl-1-(4-isopropyl-benzenesulfonyl)-piperazine-2-carbonyl]-amino}-ethyl)-benzoic acid], the half-maximal inhibitory concentration (IC50) in assay [1] and in assay [2] was greater than 1 µM each time.
